Columns and labels:
early mouse embryos = assay: Early mouse embryo cultures from in vitro fertilization (IVF) assays; conditions: added to cultures of IVF embryos; preliminary studies
F9 teratocarcinoma cells = assay: Cell proliferation by cell counting; format: cell-based, murine; conditions: efavirenz 10 and 20 μM, dose-dependent, vs non-exposed cells
Protocol: (§1) NIH/3T3 embryo fibroblasts and F9 teratocarcinoma cells were cultured in DMEM containing 10-20% fetal serum and two concentrations of efavirenz, i.e. 10 and 20 μM, diluted from a stock solution (10 mM) in 100% DMSO. Cells were plated at a density of 2-5×10^4 in 35 mm Petri dishes and exposed to efavirenz 5-6 hours later. Samples were withdrawn at specific times and cells were counted in efavirenz-exposed compared to parallel non-exposed cell cultures.

[1] = system: NIH/3T3 embryo fibroblasts; assay: Cell proliferation by cell counting; format: cell-based, murine; conditions: efavirenz 10 and 20 μM, dose-dependent, vs non-exposed cells
Protocol: as §1

[2] = system: Saos-2 osteosarcoma cells; assay: Cell proliferation by cell counting; format: cell-based, human; conditions: 20 μM efavirenz
Protocol: Samples were withdrawn at specific times and cells were counted in nevirapine-exposed and control (DMSO-exposed) cultures. […] Saos-2 osteosarcoma cells were the most slowly responsive type, and only after 5 days of exposure did the growth rate begin to decrease compared to control cultures.
(§2) The effect of efavirenz was further tested in human HeLa adenocarcinoma and Saos-2 osteosarcoma cells. Both cell lines were cultured in the conditions described above (Example 6). To establish if prolonged exposure to the drug improved the effectiveness of growth inhibition, both cell lines were exposed to efavirenz in two subsequent cycles: during the 1st cycle cells were continuously exposed to 20 μM efavirenz for 5 days; cells were then diluted, reseeded again and the 2nd cycle exposure was initiated the following day with fresh drug. […] The inhibitory effect was time-dependent, since in both HeLa and Saos-2 cultures, the 1st cycle of exposure (5 days) yielded a 1.6- and 1.5-fold reduction, respectively, whereas a 5- and 4-fold reduction was obtained in the 2nd cycle (carried out until day 20 from the onset of exposure).

[3] = system: HeLa adenocarcinoma cells; assay: Cell proliferation by cell counting; format: cell-based, human; conditions: 20 μM efavirenz
Protocol: as §2

Morris 3924A hepatoma = assay: Morris 3924A rat hepatoma in vivo; conditions: efavirenz 1 mg/rat/day from day of inoculation; two treated rats; controls died at 27th day
Protocol: Rat strain: ACI/T inbred (about 180 gr)
Tumor: Morris 3924A hepatoma is a fast-growing tumor which develops in inbred ACI/T animals. Three weeks after inoculation the tumor size is about 10 cm^3.
Preparation of tumor cells: hepatoma tumor cells are prepared from the animal about two weeks after inoculation. The tumor is surgically removed from the animal, separated from connective and necrotic tissues and minced in small pieces. Tumor fragments are then suspended in sterile physiological solution and inoculated in the internal site of one thigh using a 20 ml-syringe with a large size needle. Routinely 0.5 ml of cell suspension are injected. The success rate of tumor implantation is nearly 99%.
On the eleventh day, hepatoma cells were inoculated subcutaneously in pre-treated and in three non-treated control rats.
Procedures and Results: Morris hepatoma cells were inoculated in 4 rats ([…]). The same day, treatment with efavirenz was initiated in two of them by injecting 1 mg/rat/day.

HL60 cells [4] = assay: Cytofluorimetric analysis of cell surface markers; format: cell-based, human; conditions: HL60, RA 1 μM, 4 days
Text: (§3) The induction of CD11b is associated with granulocytic differentiation, CD14 is considered a monocytic specific antigen and CD15 is a myelomonocytic antigen. Simultaneous induction of CD14 and CD11b relates to monocytic differentiation. […] In nevirapine-treated NB4 and HL60 cells, a strong induction of expression of CD15, and, to a lesser degree, CD11b and CD14 markers was detected.

NB4 cells [5] = assay: Cytofluorimetric analysis of cell surface markers; format: cell-based, human; conditions: NB4, RA 1 μM, 4 days
Text: as §3

NB4 cells [6] = assay: Growth, viable cell count; format: cell-based, human; conditions: NB4, RA 1 μM, 4 days
HL60 cells [7] = assay: Growth, viable cell count; format: cell-based, human; conditions: HL60, RA 1 μM, 4 days
NB4 cells [8] = assay: NBT dye reduction assay; format: cell-based, human; conditions: NB4, RA 1 μM, 4 days
HL60 cells [9] = assay: NBT dye reduction assay; format: cell-based, human; conditions: HL60, RA 1 μM, 4 days
[10] = 2nd cycle (until day 20 from onset of exposure)

| SMILES | development of early mouse embryos (early mouse embryos) | rate of proliferation (F9 teratocarcinoma cells) | rate of proliferation [1] | reduction in the rate of cell growth ([2]; 1st cycle of exposure (5 days)) | reduction in the rate of cell growth [2, 10] | reduction in the rate of cell growth ([3]; 1st cycle of exposure (5 days)) | reduction in the rate of cell growth [3, 10] | tumor development in treated rats (Morris 3924A hepatoma) | CD11b mean fluorescence intensity (HL60 cells [4]) | CD14 mean fluorescence intensity (HL60 cells [4]) | CD15 mean fluorescence intensity (HL60 cells [4]) | CD11b mean fluorescence intensity (NB4 cells [5]) | CD14 mean fluorescence intensity (NB4 cells [5]) | CD15 mean fluorescence intensity (NB4 cells [5]) | Viable cells N^0 × 10^5 (NB4 cells [6]) | Viable cells N^0 × 10^5 (HL60 cells [7]) | NBT+ (%) (NB4 cells [8]) | NBT+ (%) (HL60 cells [9]) |
| --- | --- | --- | --- | --- | --- | --- | --- | --- | --- | --- | --- | --- | --- | --- | --- | --- | --- | --- |
| O=C1Nc2ccc(Cl)cc2[C@@](C#CC2CC2)(C(F)(F)F)O1 [efavirenz, (−)-6-chloro-4-cyclopropylethynyl-4-trifluoromethyl-1,4,-dihydro-2H-3,1-benzoxazine-one] | early and effective developmental arrest | decreases the rate of proliferation | decreases the rate of proliferation | 1.5 fold | 4 fold | 1.6 fold | 5 fold | only one of two treated animals developed a tumor of markedly smaller size, whereas the other remained totally healthy |  |  |  |  |  |  |  |  |  |  |
| CC1=C(/C=C/C(C)=C/C=C/C(C)=C/C(=O)O)C(C)(C)CCC1 [RA, retinoic acid] |  |  |  |  |  |  |  |  | 15.3 AU | 23.7 AU | 609.7 AU | 53.7 AU | 19.1 AU | 421.7 AU | 1.4 ± 0.1 × 10^5 | 6.5 ± 0.9 × 10^5 | 80.6 ± 4.5% | 31.2 ± 1.4% |

From patent US10507207B2, “Non-nucleosidic inhibitors of reverse transcriptase as antagonists of cell proliferation and inducers of cell differentiation” (ISTITUTO SUPERIORE DI SANITA, priority 2001, dated 2019)
